The term IC50 denotes the concentration that gives 50% inhibition.

Results on 4 compounds are retold here after paper PMC9322761, “Design, Synthesis and Biological Characterization of Histone Deacetylase 8 (HDAC8) Proteolysis Targeting Chimeras (PROTACs) with Anti-Neuroblastoma Activity” (International Journal of Molecular Sciences, 2022).

Data set [1] is described as follows: Non-enzymatic stability in assay medium (HPLC). The following applies: 37 °C, 10 µM, pH7.4.
Experimental: Non-enzymatic stability of selected final compounds was determined using 10 µM concentration of the tested PROTACs in one of the following assay media; Dulbecco’s modified Eagle medium (DMEM) (50%)/dimethylsulfoxid (10%)/acetonitrile (40%) or DMEM (50%)/dimethylsulfoxid (10%)/methanol (40%) mixture at pH7.4. The formed solution mixtures were incubated for 0, 6, 12, and 24 h at 37 °C. Analyte decomposition was monitored by HPLC using XTerra RP18 column (3.5 mm, 3.9 mm × 100 mm) from the manufacturer Waters (Milford, MA, USA) and two LC-10AD pumps, a SPD-M10A VP PDA detector, and a SIL-HT autosampler, all from the manufacturer Shimadzu (Kyoto, Japan).
For data set [2], the system named is SK-N-BE(2)-C cells. The data set is described as follows: Cell differentiation assay (neurite-like outgrowths, crystal violet). Type of data set: cell-based, human. The following applies: combined with ATRA, 6–10 days. The text has this: As HDAC8 inhibition is known to induce signs of neuronal differentiation, such as neurite-like outgrowths in neuroblastoma cells), we treated SK-N-BE(2)-C cells with CRBN_1b, CRBN_1e, HyT_1m, and PCI-34051 for 6–10 days then stained the cells with crystal violet to visualize neurite-like outgrowths. For comparison, we treated the cells with the known neuronal differentiation inducer retinoic acid (ATRA) which is a known drug, that is applied for neuroblastoma treatment under some circumstances.
Adherent cells plated on 6-well plates were treated as indicated. For staining, cells were rinsed once with (PBS) and incubated with crystal violet staining solution (1% (w/v) in 70% EtOH) for 1 min. Subsequently, the staining solution was removed and cells were rinsed two to three times with autoclaved purified water and allowed to dry. All-trans retinoic acid (ATRA, Sigma-Aldrich, stock concentration 10 mM) was dissolved in ethanol (EtOH, Sigma-Aldrich, St. Louis, USA).
Figure 7 (A) SK-N-BE(2)-C cells, treated for 10 days. Scale bar: 500 µm. Stained with crystal violet. (B) SK-N-BE(2)-C cells, treated for 6 days. Stained with crystal violet.

The test system of data set [3] is SK-N-BE(2)-C cells. The data set is described as follows: Colony formation assay in neuroblastoma cells. It is filed as cell-based, human. Particulars: 5 and 10 μM, treatment 96 h, then 6 days without treatment. How it is done:
In order to measure the functional consequence of HDAC8 inhibition, two different cell lines were used: SK-N-BE(2)-C cells, which display MYCN amplification and non-functional p53; and IMR-32 cells having p53 wild type, which both respond with growth arrest and signs of neuronal differentiation upon knockdown or selective inhibition of HDAC8. Growth arrest was determined by colony formation and viability assays. Cells were treated with 5 and 10 μM of each of the CRBN_ based HDAC8 PROTACs having a triazole linker (CRBN_1d, CRBN_1e, CRBN_1f) for 96 h, followed by culturing for another 6 days without treatment (Figure 5A). This assesses whether the treatment impairs the clonogenic growth capacity of tumor cells, indicating effectiveness of compounds on the survival and proliferation of tumor cells.
In six-well plates, 500 cells were seeded and treated as indicated. Viable colonies were stained after a minimum of 10 days with crystal violet. For quantification, the mean intensity of each well of the 8-bit binary picture was measured with ImageJ software (U. S. National Institutes of Health, Bethesda, MD, USA; http://imagej.nih.gov/ij/ (accessed on 1 March 2022)).
Figure 5 (A) Neuroblastoma SK-N-BE(2)-C cells; Colony Assay, 10 days (compound treatment within first 96 h). Stained with crystal violet and quantified with ImageJ. (B,C) Trypan Blue assay for detection of dead cells. Neuroblastoma IMR-32 cells were either treated with 5 µM (B) or 10 µM (C). (D,E) Cell proliferation assessed via counting of viable cells. IMR-32 cells were either treated with 5 µM (D) or 10 µM (E) PROTACs. HDAC8i PCI-34501 served as a positive control, untreated (MEM) and solvent (DMSO) treated cells served as negative controls.

Data set [4] in a line: Cytotoxicity on HEK293 cells (Alamar Blue assay). The following applies: human. For orientation: Resazurin is reduced to fluorescent resorufin, in cell work by metabolically active cells.
Experimental: The cells were seeded out at 1.5 × 10^3 cells per well in a 96-well cell culture plate (TPP, Techno Plastic Products AG, Trasadingen, Switzerland). […] After 24 h, Alamar Blue reagent (Invitrogen, Carlsbad, CA, USA) was added according to the manufacturer’s instructions and incubated again for 21 h before the samples were analyzed.
Data set [5] deals with HDAC8. Particulars: cited from earlier work.
The subject of data set [6] is HDAC8. Further details: method as in PMID 35311871. Particulars: Jurkat cells; cited from earlier work.

`COc1ccc(C(=O)NO)cc1NCc1ccc(OCc2cn(CCCCCC(=O)Nc3cccc4c3C(=O)N(C3CCC(=O)NC3=O)C4=O)nn2)cc1` (stereo not shown) [CRBN_1e]: the “Non-enzymatic stability, compound remaining” value in data set [1] (6 h) turned out to be 91.6%; in data set [1] (24 h) it was 65.5%. For the same compound, the “Differentiation phenotype (neurite-like outgrowths)” value with SK-N-BE(2)-C cells [2] is “substantially enhanced the differentiation phenotype”. Moreover, the “Effect on colony formation” value with SK-N-BE(2)-C cells [3] is reported as “strongest effect on colony formation”.
In data set [4], `COc1cccc2c1C(=O)c1c(O)c3c(c(O)c1C2=O)C[C@@](O)(C(C)=O)C[C@@H]3O[C@H]1C[C@H](N)[C@H](O)[C@H](C)O1` [Daunorubicin] yielded an IC50 at 48 h of 2100 nM.
As for `N[C@H](Cc1cccc(Cl)c1)C(=O)N1CCN(C(=O)c2cc(F)ccc2F)CC1` [II], the concentration for half-maximal inhibition (IC50) in the data set on HDAC8 [5] is 200 nM.
Consider `O=C1CCC(N2C(=O)c3cccc(NCCCCCCCCCCCNC(=O)c4cccc(SCc5cn(-c6cccc(C(=O)NO)c6)nn5)c4)c3C2=O)C(=O)N1` (stereo not shown) [XIII], for which the “HDAC8 degradation” value in the data set on HDAC8 [6] is “efficient degradation of HDAC8 enzyme”.
